In ChEMBL document CHEMBL5346964, “Discovery of LNP1892: A Precision Calcimimetic for the Treatment of Secondary Hyperparathyroidism” (J Med Chem, 2023):

Columns and labels:
[1] = biological target: T1, Voltage-gated inwardly rectifying potassium channel KCNH2 (Homo sapiens, UniProt Q12809); assay: (§1) Inhibition of hERG at 10 uM relative to control; format: toxicity; settings: 10 µM
[2] = biological target: T2, Extracellular calcium-sensing receptor (Homo sapiens, UniProt P41180); assay: Agonist activity at human CaSR expresssed in HEK293 cells in presence of glucose by Fluo4NW dye based FLIPR assay; format: functional, cell-based; settings: read-out: EC50
T2 sequence (P41180 whole entry): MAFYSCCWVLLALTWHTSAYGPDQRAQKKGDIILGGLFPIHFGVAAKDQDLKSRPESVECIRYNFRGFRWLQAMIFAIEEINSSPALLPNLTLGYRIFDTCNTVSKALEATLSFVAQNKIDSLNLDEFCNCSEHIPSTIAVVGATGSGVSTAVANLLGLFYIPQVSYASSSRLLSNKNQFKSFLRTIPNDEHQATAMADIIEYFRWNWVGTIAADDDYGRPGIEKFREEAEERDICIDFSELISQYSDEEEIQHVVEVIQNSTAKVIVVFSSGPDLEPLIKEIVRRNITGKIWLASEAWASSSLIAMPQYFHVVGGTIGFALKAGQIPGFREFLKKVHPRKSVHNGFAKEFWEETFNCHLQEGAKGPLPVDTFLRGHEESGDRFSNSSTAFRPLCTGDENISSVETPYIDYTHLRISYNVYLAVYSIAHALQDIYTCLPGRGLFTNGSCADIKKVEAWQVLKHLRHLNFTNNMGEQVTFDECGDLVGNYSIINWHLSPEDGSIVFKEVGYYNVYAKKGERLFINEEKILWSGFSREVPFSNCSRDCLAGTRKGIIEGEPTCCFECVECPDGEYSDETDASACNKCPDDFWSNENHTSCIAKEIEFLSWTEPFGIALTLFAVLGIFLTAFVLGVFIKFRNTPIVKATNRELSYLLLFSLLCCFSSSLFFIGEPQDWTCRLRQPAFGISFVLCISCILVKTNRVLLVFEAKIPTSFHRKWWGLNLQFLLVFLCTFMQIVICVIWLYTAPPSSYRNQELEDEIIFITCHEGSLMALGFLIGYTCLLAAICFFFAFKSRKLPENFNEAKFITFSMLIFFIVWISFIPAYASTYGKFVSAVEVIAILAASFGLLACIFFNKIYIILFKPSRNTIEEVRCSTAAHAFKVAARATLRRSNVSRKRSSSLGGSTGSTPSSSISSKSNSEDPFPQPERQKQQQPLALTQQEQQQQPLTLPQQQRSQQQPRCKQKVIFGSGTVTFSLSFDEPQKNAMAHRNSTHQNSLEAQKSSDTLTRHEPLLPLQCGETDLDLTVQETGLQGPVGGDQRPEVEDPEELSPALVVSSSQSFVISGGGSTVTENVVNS

[3] = biological target: T1, Voltage-gated inwardly rectifying potassium channel KCNH2; assay: (§2) Inhibition of hERG at 1 uM relative to control; format: toxicity; settings: 1 µM
[4] = Microsomal stability in human liver microsomes assessed as parent compound remaining at 1 uM measured upto 30 mins in presence of NADPH by LC-MS/MS analysis; format: ADME, Microsome; settings: for remaining at 0.5 h, 1 µM: liver microsomes, read-out: Stability
[5] = Oral bioavailability in Sprague-Dawley rat at 10 mg/kg measured upto 24 hrs by LC-MS/MS analysis; format: ADME, organism-based; settings: in vivo
[6] = AUClast in Sprague-Dawley rat at 1 mg/kg, iv measured upto 24 hrs by LC-MS/MS analysis; format: ADME, organism-based; set-up: dose 1 mg/kg, time < 24 hrs, route iv; settings: in vivo
[7] = AUClast in Sprague-Dawley rat at 10 mg/kg, po measured upto 24 hrs by LC-MS/MS analysis; format: ADME, organism-based; set-up: dose 10 mg/kg, time < 24 hrs, route po; settings: in vivo
[8] = tested on: Rattus norvegicus; assay: Acute effect on parathyroid hormone in overnight fasted adenine diet-induced chronic kidney disease Wistar rat model assessed as reduction in plasma PTH level at 10 mg/kg, po measured after 2 hrs of post treatment by sandwich ELISA analysis; format: functional; set-up: scale not given: the % may be the effect or the level left
[9] = Cmax in Sprague-Dawley rat at 1 mg/kg, iv measured upto 24 hrs by LC-MS/MS analysis; format: ADME, organism-based; set-up: dose 1 mg/kg, time < 24 hrs, route iv; settings: in vivo
[10] = Half life in Sprague-Dawley rat at 1 mg/kg, iv measured upto 24 hrs by LC-MS/MS analysis; format: ADME, organism-based; settings: in vivo
[11] = biological target: Cytochrome P450 2D6 (Homo sapiens, UniProt P10635); assay: Inhibition of CYP2D6 in human liver microsomes preincubated for 5 mins followed by NADPH addition by LC-MS/MS analysis; format: ADME, Microsome
[12] = Effect on parathyroid hormone in overnight fasted Sprague-Dawley rat assessed as reduction in plasma PTH level at 10 mg/kg, po measured after 2 hrs of post treatment by sandwich ELISA analysis; format: functional; set-up: scale not given: the % may be the effect or the level left
[13] = tested on: Rattus norvegicus; assay: Acute effect on parathyroid hormone in overnight fasted adenine diet-induced chronic kidney disease Wistar rat model assessed as reduction in plasma PTH level at 10 mg/kg, po measured after 1 hrs of post treatment by sandwich ELISA analysis; format: functional; set-up: scale not given: the % may be the effect or the level left
[14] = Microsomal stability in rat liver microsomes assessed as parent compound remaining at 1 uM measured upto 30 mins in presence of NADPH by LC-MS/MS analysis; format: ADME, Microsome; settings: read-out: Stability
[15] = Clearance in Sprague-Dawley rat at 1 mg/kg, iv measured upto 24 hrs by LC-MS/MS analysis; format: ADME, organism-based; settings: in vivo
[16] = Effect on parathyroid hormone in overnight fasted Sprague-Dawley rat assessed as reduction in plasma PTH level at 10 mg/kg, po measured after 0.5 hrs of post treatment by sandwich ELISA analysis; format: functional; set-up: scale not given: the % may be the effect or the level left
[17] = Volume of distribution at steady state in Sprague-Dawley rat at 1 mg/kg, iv measured upto 24 hrs by LC-MS/MS analysis; format: ADME, organism-based; settings: in vivo, read-out: Vdss
[18] = Effect on parathyroid hormone in overnight fasted Sprague-Dawley rat assessed as reduction in plasma PTH level at 10 mg/kg, po measured after 6 hrs of post treatment by sandwich ELISA analysis (reference value: 33%); format: functional; set-up: scale not given: the % may be the effect or the level left
[19] = tested on: Rattus norvegicus; assay: Subchronic effect on parathyroid hormone in overnight fasted adenine diet-induced chronic kidney disease Wistar rat model plasma assessed as reduction in plasma PTH level at 3 mg/kg, po qd measured after 27 days of post treatment by sandwich ELISA analysis; format: functional; set-up: scale not given: the % may be the effect or the level left; settings: time 27 day
[20] = biological target: T3, hERG (Homo sapiens, UniProt Q12809); assay: as §1; format: toxicity
[21] = Effect on parathyroid hormone in overnight fasted Sprague-Dawley rat assessed as reduction in plasma PTH level at 10 mg/kg, po measured after 4 hrs of post treatment by sandwich ELISA analysis (reference value: 18%); format: functional; set-up: scale not given: the % may be the effect or the level left
[22] = tested on: Rattus norvegicus; assay: Effect on parathyroid hormone in po dosed overnight fasted Sprague-Dawley rat assessed as reduction in plasma PTH level measured after 0.5 to 6 hrs of post treatment by sandwich ELISA analysis; format: functional, organism-based; settings: dose 3-30 mg/kg, time 0.5-6 hrs
[23] = biological target: T3, hERG; assay: as §2; format: toxicity
[24] = Cmax in Sprague-Dawley rat at 10 mg/kg, po measured upto 24 hrs by LC-MS/MS analysis; format: ADME, organism-based; set-up: time < 24 hrs, dose 10 mg/kg, route po; settings: in vivo
[25] = tested on: Rattus norvegicus; assay: Chronic effect on parathyroid hormone in overnight fasted adenine diet-induced chronic kidney disease Wistar rat model plasma assessed as reduction in plasma PTH level at 10 mg/kg, po qd measured after 27 days of post treatment by sandwich ELISA analysis; format: functional; set-up: scale not given: the % may be the effect or the level left; settings: time 27 day
[26] = tested on: Rattus norvegicus; assay: Acute effect on parathyroid hormone in overnight fasted adenine diet-induced chronic kidney disease Wistar rat model assessed as reduction in plasma PTH level at 10 mg/kg, po measured after 4 hrs of post treatment by sandwich ELISA analysis; format: functional; set-up: scale not given: the % may be the effect or the level left
[27] = Tmax in Sprague-Dawley rat at 10 mg/kg, po measured upto 24 hrs by LC-MS/MS analysis; format: ADME, organism-based; settings: in vivo
[28] = Effect on parathyroid hormone in overnight fasted Sprague-Dawley rat plasma assessed as reduction in PTH level at 30 mg/kg, po measured after 0.5 hrs of post treatment by sandwich ELISA analysis; format: functional; set-up: scale not given: the % may be the effect or the level left
[29] = biological target: T4, CYP2D6 (Homo sapiens, UniProt P10635); assay: Inhibition of CYP2D6 in human liver microsomes at 10 uM preincubated for 5 mins followed by NADPH addition by LC-MS/MS analysis relative to control; format: ADME, Microsome
[30] = Effect on parathyroid hormone in overnight fasted Sprague-Dawley rat assessed as reduction in plasma PTH level at 10 mg/kg, po measured after 1 hrs of post treatment by sandwich ELISA analysis; format: functional; set-up: scale not given: the % may be the effect or the level left
[31] = biological target: T4, CYP2D6; assay: Inhibition of CYP2D6 in human liver microsomes at 1 uM preincubated for 5 mins followed by NADPH addition by LC-MS/MS analysis relative to control; format: ADME, Microsome
[32] = Effect on parathyroid hormone in overnight fasted Sprague-Dawley rat assessed as reduction in plasma PTH level at 30 mg/kg, po measured after 1 hrs of post treatment by sandwich ELISA analysis; format: functional; set-up: scale not given: the % may be the effect or the level left
[33] = Effect on parathyroid hormone in overnight fasted Sprague-Dawley rat assessed as reduction in plasma PTH level at 30 mg/kg, po measured after 2 hrs of post treatment by sandwich ELISA analysis; format: functional; set-up: scale not given: the % may be the effect or the level left
[34] = Tmax in Sprague-Dawley rat at 1 mg/kg, iv measured upto 24 hrs by LC-MS/MS analysis; format: ADME, organism-based; settings: in vivo
[35] = Effect on parathyroid hormone in overnight fasted Sprague-Dawley rat assessed as reduction in plasma PTH level at 30 mg/kg, po measured after 4 hrs of post treatment by sandwich ELISA analysis; format: functional; set-up: scale not given: the % may be the effect or the level left

T3 sequence (Q12809 whole entry): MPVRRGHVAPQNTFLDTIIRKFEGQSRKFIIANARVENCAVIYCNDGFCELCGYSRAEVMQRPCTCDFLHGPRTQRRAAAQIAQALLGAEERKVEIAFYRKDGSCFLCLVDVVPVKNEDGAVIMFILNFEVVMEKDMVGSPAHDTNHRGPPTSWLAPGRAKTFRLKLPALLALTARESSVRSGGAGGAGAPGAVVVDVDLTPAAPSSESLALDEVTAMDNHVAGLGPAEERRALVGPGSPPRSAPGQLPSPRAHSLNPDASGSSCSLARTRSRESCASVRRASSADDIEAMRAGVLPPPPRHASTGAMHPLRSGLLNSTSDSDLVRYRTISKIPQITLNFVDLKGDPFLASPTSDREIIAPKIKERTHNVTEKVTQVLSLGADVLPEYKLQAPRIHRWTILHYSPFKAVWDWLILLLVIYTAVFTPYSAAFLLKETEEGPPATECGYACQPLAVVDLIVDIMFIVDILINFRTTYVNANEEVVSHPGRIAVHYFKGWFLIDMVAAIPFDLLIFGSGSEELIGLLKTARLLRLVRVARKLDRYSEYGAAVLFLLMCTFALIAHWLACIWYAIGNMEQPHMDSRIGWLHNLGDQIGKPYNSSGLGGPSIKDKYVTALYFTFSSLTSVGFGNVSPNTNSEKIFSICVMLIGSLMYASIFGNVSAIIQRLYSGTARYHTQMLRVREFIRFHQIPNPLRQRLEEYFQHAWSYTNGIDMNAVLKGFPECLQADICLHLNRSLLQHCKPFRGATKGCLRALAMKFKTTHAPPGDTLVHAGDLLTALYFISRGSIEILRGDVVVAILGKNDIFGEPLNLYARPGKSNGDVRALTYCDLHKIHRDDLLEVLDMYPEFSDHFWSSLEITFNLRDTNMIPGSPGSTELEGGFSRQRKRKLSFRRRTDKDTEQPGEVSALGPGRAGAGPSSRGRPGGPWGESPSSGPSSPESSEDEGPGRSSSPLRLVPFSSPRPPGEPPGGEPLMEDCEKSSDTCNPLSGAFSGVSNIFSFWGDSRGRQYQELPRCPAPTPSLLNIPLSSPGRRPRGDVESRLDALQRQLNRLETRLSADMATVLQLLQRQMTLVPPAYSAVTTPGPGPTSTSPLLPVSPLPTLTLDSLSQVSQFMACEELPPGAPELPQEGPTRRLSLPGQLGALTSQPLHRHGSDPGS
T4 sequence (P10635 whole entry): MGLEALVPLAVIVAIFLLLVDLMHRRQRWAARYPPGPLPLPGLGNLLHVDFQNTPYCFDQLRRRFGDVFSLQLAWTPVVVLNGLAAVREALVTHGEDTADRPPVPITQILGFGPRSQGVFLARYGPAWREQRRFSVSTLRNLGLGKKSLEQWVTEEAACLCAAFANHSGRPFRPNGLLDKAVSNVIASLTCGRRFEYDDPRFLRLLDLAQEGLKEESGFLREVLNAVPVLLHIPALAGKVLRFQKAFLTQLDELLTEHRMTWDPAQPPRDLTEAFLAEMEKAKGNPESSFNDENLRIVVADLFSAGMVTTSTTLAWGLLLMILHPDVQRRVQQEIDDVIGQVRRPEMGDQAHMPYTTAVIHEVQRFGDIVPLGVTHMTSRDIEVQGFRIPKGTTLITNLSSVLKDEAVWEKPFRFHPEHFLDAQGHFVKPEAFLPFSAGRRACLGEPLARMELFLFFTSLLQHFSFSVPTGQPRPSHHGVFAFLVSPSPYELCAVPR
T1 sequence (Q12809 whole entry): as the sequence (Q12809 whole entry) above
Sequence of Cytochrome P450 2D6 (P10635 whole entry): as the sequence (P10635 whole entry) above

| EC50 [2] | bioavailability [5] | AUC(0-t) at 24 h [6] | AUC(0-t) at 24 h [7] | Cmax [9] | half-life [10] | remaining at 0.5 h, 1 µM [14] | clearance [15] | Vd [17] | Cmax [24] | remaining at 0.5 h, 1 µM [4] | Tmax [27] | SMILES | Activity [12] | Activity [16] | inhibition at 10 µM [20] | Activity [21] | inhibition at 1 µM [23] | other results |
| --- | --- | --- | --- | --- | --- | --- | --- | --- | --- | --- | --- | --- | --- | --- | --- | --- | --- | --- |
| 49.5 nM |  |  |  |  |  |  |  |  |  |  |  | Cc1c(C(=O)O)cccc1N1CC(CN[C@H](C)c2cccc3ccccc23)Oc2ccccc21.Cl (mixture of isomers; form 2) |  |  |  |  |  | inhibition (INH) [1]: -16%; inhibition (INH) [3]: -28%; Stability ([4]; microsomes, 0.5 h, 1 µM): 10% |
| 4 nM | 19% | 1.02 µM·h | 1.9 µM·h | 500 nM | 360 min | 4% | 44 mL/min/kg | 23 L/kg | 270 nM | 65% | 30 min | C[C@@H](NCCCc1cccc(C(F)(F)F)c1)c1cccc2ccccc12 [CINACALCET] | 99% | 92% | 97% | 74% | 19% | Activity [8]: 97%; IC50 [11]: > 50000 nM; Activity [13]: 92%; Activity [18]: 61%; Activity [19]: 37%; Activity [22]: Dose-Dependent Effect; Activity [25]: 58%; Activity [26]: 71% |
| 7 nM | 79% | 7 µM·h | 55 µM·h | 5000 nM | 180 min | 55% | 5 mL/min/kg | 1 L/kg | 13000 nM | 45% | 3 min | Cc1ccc(N2CC(CN[C@H](C)c3cccc4ccccc34)Oc3ccccc32)cc1C(=O)O.Cl (some centres undefined) | 100% | 100% | 14% | 66% | 7% | Activity [28]: 100%; inhibition at 10 µM [29]: 47%; Activity [30]: 86%; inhibition at 1 µM [31]: 44%; Activity [32]: 97%; Activity [33]: 100%; Tmax [34]: 4.8 min; Activity [35]: 92% |
